# Results: ChEMBL document CHEMBL1201862, “PubChem BioAssay data set” (2004)
# The source made the active and inactive calls.
# Experiments:
# [1] = viability loss in THP-1 monocytes – THP-1 cells, cytotoxicity control for Vif-APOBEC3G degradation inhibitor project, dose response (AID 1117359); assay type: functional; conditions: THP-1
# [2] = molecular target: T1, Replicative DNA helicase DnaB (Mycobacterium tuberculosis, UniProt P9WMR3); assay: DnaB intein splicing inhibitors, dose response, biochemical, cell-free fluorescence (AID 449749); assay type: functional
# T1 sequence (P9WMR3 whole entry): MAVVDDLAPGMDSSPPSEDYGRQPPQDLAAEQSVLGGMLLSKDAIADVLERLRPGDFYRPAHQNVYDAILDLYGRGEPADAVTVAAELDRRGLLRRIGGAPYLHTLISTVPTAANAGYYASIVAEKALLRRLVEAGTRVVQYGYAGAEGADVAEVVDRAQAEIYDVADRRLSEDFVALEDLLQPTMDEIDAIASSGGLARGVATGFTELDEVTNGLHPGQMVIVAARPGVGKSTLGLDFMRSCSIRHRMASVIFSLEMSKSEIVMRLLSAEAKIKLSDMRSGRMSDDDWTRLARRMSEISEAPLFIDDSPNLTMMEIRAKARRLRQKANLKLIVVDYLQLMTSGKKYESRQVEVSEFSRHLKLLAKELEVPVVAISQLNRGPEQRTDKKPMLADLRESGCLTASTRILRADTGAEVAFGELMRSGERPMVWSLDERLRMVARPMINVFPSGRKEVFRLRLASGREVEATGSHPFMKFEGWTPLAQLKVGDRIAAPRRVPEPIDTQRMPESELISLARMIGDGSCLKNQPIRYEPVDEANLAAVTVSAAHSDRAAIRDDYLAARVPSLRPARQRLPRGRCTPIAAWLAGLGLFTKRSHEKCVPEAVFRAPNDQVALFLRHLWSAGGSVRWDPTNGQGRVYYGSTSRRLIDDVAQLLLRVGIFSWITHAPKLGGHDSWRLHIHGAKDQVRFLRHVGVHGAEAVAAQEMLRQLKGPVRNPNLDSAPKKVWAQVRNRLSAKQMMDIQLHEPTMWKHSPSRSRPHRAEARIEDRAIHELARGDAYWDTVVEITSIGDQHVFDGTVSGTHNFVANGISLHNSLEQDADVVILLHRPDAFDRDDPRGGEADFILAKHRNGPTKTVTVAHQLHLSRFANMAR
# [3] = molecular target: T2, Protein RecA (Mycobacterium tuberculosis, UniProt P9WHJ3); assay: Fluorescence Cell-Free Homogeneous Dose Retest to Identify Inhibitors of RecA-Intein Splicing Activity. [Related pubchem assays (depositor defined):AID2097, AID2223, AID489010, AID492950]; assay type: functional
# T2 sequence (P9WHJ3 whole entry): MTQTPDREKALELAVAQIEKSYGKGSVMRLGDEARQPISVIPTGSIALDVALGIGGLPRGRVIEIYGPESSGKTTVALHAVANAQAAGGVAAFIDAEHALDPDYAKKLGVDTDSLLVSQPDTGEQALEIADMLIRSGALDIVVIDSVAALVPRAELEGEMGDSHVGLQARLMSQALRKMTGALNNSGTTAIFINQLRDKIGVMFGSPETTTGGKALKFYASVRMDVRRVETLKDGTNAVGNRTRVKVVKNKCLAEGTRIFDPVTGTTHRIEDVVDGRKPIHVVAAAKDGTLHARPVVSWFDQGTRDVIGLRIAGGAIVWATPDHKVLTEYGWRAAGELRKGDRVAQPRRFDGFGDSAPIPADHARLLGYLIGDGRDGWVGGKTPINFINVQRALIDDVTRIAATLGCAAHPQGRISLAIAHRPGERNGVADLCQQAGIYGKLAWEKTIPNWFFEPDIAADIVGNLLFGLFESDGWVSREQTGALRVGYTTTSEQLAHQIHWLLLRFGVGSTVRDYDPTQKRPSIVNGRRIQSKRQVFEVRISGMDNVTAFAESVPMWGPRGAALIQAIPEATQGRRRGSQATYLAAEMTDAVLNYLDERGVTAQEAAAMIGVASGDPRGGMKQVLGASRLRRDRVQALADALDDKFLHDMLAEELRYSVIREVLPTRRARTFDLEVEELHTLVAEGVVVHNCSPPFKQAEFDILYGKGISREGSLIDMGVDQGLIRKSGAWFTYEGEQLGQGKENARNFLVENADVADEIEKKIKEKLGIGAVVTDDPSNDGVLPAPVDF
# [4] = molecular target: T3, Polyadenylate-binding protein 1 (Homo sapiens, UniProt P11940); assay: MLLE binding blockers, Cy5 peptide tracer – biochemical, fluorescence polarization, Cy5-PAM2 peptide, secondary, miRNA deadenylation inhibitor project, dose response (AID 602260); assay type: functional; conditions: read-out: IC50_Mean
# [5] = molecular target: T3, Polyadenylate-binding protein 1; assay: MLLE domain peptide-binding blockers, IC50 – biochemical, fluorescence polarization, FITC-PAM2 peptide, dose response (AID 602259); assay type: functional; conditions: read-out: IC50_Mean
# [6] = molecular target: T4, Corticotropin-releasing factor receptor 2/Corticotropin-releasing factor-binding protein (Homo sapiens, UniProt P24387+Q13324); assay: activators of CRF receptor 2 with binding protein – uHTS hits, confirmation (AID 602473); assay type: functional; conditions: read-out: EC50_Mean
# T4 sequence (Q13324 whole entry): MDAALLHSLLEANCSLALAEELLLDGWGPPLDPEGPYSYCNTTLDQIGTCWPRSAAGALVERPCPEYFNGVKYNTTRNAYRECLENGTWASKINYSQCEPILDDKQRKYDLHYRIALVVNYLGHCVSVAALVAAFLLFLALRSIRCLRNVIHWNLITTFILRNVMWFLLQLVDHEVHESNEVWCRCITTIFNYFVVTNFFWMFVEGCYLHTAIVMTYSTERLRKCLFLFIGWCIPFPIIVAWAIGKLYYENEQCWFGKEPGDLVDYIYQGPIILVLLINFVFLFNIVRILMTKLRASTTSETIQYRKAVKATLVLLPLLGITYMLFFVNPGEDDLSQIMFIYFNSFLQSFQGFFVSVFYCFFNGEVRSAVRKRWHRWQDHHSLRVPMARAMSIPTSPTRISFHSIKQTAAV
# T4 sequence (P24387 whole entry): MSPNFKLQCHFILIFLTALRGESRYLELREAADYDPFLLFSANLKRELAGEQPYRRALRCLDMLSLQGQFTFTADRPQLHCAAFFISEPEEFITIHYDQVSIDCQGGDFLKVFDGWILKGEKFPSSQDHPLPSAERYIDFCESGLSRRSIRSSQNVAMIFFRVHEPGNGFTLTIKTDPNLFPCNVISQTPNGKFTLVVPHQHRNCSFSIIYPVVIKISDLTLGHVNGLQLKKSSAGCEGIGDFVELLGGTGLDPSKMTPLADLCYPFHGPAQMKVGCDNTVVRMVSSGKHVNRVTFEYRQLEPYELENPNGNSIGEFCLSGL
# [7] = molecular target: Estrogen receptor beta (Homo sapiens, UniProt Q92731);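 further: recombinant ER-beta bound to coactivator SRC1 peptide in presence of estradiol agonist; inhibitors block coactivator peptide binding and lower the FRET signal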
# [8] = microbe, parasite or virus in culture; assay type: functional; conditions: Mycobacterium tuberculosis
# [9] = molecular target: T5, Leucine aminopeptidase (Plasmodium falciparum 3D7, UniProt Q8IL11); assay: P. falciparum M17LAP inhibitors, primary screen, biochemical, fluorogenic H-Leu-NHMec substrate, 1536-well (AID 1619); assay type: functional
# T5 sequence (Q8IL11 whole entry): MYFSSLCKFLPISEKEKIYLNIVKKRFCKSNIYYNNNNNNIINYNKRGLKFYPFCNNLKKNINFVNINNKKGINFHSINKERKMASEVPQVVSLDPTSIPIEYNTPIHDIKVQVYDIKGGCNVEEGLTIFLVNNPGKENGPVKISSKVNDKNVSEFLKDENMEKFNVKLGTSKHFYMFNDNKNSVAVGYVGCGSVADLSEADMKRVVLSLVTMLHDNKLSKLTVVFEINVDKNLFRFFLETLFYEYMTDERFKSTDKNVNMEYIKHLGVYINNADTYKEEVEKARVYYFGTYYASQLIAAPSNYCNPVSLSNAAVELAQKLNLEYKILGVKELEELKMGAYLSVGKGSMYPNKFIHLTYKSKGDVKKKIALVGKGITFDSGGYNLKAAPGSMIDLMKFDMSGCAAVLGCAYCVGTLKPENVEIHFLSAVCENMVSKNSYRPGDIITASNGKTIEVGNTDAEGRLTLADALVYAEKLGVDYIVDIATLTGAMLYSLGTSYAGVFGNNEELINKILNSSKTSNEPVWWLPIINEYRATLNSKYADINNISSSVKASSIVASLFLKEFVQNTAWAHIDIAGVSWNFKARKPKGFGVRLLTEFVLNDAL
# [10] = molecular target: Genome polyprotein (dengue virus type 2, UniProt P29990); assay: flavivirus cap methylation enzyme inhibition – biochemical, confirmation dose response, primary screen (AID 588689); assay type: functional
# [11] = test system: CHO; assay: CHO cell viability loss, potency – luminescence, cytotoxicity control for TLR9-MyD88 binding inhibitor project, dose response (AID 588339); assay type: functional, cell-based, hamster; conditions: Cricetulus griseus;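 further: CHO cells stably coexpressing TLR9 and MyD88 fusions from primary screen; compound exposure lasted 48 hours before viability readout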
# [12] = molecular target: Beta Lactamase (Pseudomonas aeruginosa, UniProt Q932Y6); assay: BLA reporter interference, concentration series – BLA reporter cells, FRET fluorescence, artefact control for TLR9-MyD88 binding inhibitor project, dose response (AID 588341); assay type: cell-based;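 further: cell based assay in CHO-K1 cells stably expressing beta-lactamase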
# [13] = intracellular Trypanosoma cruzi inhibitors in host cells – cell-based, plate reader, cherry-pick samples, set 3, dose response (AID 651818); assay type: functional;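 further: compounds incubated with infected cells for about four days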
# [14] = molecular target: Cytochrome P450 2C19 (Homo sapiens, UniProt P33261); assay: Cytochrome panel assay with activity outcomes. Panel member name: p450-cyp2c19 Compounds with AC50 equal or less than 10 uM are considered active; assay type: functional
# [15] = molecular target: Cytochrome P450 3A4 (Homo sapiens, UniProt P08684);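 further: CYP3A4 tested as one member of a cytochrome P450 panel screen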
# [16] = molecular target: Cytochrome P450 2C9 (Homo sapiens, UniProt P11712)
# Sequence of Cytochrome P450 2C9 (P11712 whole entry): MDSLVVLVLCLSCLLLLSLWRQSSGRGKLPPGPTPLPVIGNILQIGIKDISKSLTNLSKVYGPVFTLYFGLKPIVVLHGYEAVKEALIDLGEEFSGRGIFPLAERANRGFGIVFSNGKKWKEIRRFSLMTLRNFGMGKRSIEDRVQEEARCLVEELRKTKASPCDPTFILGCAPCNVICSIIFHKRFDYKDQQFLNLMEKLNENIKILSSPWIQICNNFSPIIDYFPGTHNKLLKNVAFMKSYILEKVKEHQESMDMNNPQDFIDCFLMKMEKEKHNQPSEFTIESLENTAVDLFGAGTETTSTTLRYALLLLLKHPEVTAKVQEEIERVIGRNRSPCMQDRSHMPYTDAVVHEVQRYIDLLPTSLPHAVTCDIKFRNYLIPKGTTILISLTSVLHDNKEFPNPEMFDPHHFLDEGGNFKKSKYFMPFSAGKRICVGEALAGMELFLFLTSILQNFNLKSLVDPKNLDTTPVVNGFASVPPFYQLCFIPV
# T3 sequence (P11940 whole entry, the tested form may be a part): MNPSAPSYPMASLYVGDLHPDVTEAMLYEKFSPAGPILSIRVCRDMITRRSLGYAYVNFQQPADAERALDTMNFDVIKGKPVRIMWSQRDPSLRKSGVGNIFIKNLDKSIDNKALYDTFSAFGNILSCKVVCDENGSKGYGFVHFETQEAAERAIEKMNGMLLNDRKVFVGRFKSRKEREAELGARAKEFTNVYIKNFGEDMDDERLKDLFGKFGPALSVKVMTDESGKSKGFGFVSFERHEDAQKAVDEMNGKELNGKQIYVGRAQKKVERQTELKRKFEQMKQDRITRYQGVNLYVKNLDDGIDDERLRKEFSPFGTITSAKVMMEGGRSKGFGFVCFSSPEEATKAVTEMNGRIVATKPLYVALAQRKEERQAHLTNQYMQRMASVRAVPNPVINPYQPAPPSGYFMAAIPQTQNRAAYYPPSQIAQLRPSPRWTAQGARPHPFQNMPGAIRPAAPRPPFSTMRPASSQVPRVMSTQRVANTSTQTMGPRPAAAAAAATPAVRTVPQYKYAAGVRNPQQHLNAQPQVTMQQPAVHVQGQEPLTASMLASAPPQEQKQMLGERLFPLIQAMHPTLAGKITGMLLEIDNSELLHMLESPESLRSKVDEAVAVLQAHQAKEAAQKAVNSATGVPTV
# Sequence of Estrogen receptor beta (Q92731 whole entry): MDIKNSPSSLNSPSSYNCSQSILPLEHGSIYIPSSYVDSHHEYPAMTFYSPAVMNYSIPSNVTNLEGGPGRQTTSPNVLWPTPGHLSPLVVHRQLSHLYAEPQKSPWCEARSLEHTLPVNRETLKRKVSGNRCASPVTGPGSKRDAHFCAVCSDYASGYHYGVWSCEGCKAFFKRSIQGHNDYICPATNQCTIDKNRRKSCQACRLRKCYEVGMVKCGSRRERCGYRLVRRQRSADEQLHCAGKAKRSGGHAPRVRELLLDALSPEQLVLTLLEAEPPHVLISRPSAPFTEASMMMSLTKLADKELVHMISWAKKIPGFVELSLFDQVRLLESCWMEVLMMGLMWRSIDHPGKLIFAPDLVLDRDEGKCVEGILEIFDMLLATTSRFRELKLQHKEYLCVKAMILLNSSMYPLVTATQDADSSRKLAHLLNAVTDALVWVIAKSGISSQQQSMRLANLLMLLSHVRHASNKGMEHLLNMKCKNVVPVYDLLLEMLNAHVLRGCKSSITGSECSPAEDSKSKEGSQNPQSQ
# Sequence of Beta Lactamase (Q932Y6 whole entry): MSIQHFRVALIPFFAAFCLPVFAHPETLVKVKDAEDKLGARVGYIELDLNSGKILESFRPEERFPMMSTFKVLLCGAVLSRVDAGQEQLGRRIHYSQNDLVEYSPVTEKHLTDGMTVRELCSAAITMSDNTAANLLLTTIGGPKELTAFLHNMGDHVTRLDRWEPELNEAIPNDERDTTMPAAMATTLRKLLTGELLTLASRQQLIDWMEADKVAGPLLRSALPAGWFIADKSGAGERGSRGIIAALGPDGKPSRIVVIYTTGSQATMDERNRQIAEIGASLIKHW
# Sequence of Cytochrome P450 2C19 (P33261 whole entry): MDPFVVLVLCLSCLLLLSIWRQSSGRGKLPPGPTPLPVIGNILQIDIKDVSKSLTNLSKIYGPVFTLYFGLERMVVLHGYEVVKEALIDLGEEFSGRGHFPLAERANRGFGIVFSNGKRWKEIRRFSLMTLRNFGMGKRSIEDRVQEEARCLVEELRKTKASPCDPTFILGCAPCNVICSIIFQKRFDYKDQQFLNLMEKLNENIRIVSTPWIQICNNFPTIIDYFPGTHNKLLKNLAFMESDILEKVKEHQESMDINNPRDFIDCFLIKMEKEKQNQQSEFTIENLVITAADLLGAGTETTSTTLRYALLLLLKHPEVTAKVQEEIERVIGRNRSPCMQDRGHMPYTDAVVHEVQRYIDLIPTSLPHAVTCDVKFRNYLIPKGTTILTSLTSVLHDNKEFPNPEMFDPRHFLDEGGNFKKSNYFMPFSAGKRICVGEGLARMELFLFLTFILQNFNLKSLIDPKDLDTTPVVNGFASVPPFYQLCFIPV
# Sequence of Genome polyprotein (P29990 2492-3391 limits assumed): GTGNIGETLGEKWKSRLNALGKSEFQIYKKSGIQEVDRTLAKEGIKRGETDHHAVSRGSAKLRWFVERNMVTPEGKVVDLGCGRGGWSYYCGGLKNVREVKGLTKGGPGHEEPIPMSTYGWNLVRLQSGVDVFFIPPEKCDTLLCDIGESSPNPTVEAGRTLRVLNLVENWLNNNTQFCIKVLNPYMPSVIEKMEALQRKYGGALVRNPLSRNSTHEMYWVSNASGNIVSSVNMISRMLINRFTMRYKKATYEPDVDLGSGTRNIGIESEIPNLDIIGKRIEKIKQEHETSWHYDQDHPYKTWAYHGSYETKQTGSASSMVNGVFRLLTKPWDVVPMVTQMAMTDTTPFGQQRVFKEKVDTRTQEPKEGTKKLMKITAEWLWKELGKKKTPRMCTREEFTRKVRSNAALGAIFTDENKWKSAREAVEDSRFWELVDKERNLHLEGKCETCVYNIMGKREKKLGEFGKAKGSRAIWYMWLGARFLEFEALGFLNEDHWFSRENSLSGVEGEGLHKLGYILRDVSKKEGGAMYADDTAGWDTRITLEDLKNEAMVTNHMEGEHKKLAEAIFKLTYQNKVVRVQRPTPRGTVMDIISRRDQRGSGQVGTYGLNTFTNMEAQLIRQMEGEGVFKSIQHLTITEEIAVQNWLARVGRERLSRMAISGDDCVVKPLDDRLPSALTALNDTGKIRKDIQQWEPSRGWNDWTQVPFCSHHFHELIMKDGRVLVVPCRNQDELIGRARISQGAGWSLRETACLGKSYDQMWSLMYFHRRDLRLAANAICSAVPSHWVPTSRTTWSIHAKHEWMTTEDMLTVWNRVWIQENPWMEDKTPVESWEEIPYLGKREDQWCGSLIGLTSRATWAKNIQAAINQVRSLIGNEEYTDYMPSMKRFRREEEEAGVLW
# Sequence of Cytochrome P450 3A4 (P08684 whole entry): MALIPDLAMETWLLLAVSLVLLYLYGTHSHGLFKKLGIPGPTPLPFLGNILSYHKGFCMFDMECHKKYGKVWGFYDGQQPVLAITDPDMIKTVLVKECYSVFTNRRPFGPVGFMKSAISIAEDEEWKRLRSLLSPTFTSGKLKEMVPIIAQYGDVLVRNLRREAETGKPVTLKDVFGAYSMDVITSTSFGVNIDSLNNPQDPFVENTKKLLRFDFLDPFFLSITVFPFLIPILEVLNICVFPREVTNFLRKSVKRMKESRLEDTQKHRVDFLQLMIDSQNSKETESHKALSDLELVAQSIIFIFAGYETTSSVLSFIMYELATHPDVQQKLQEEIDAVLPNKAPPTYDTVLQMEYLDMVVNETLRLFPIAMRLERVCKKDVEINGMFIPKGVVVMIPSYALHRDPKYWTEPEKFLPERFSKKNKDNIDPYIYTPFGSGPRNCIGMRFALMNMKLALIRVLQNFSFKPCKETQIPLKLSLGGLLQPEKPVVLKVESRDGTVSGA
compound,measurement,setting,value
COc1cccc(/C=C2\SC(N)=NC2=O)c1OS(=O)(=O)c1ccccc1,CC50,[1],> 40 µM (active)
N#CCCN(C(=O)CCl)c1cccc(Cl)c1,AC50,[2],78.4 µM (active)
same,EC50,[3],8.64 µM (active)
CS(=O)(=O)c1cccc(C(=O)Nc2nnc(C3=COCCO3)o2)c1,IC50,[4],> 66 µM (inactive)
same,IC50,[5],> 66 µM (inactive)
COC(=O)c1scc2c(O)cc(C(F)(F)F)nc12,IC50,[4],> 66 µM (inactive)
same,IC50,[5],35.7 µM (inactive)
same,EC50,[6],5.75 µM (active)
N#Cc1cc2c(=O)n3ccccc3nc2n(CCCn2ccnc2)c1=N,IC50,[7],> 50 µM (not active)
Cc1ccc(S(=O)(=O)NC(CC(C)C)C(=O)N2CCN(C/C=C/c3ccccc3)CC2)cc1 (stereo unspecified),CC50,[8],> 40 µM (active)
same,CC50,[1],> 40 µM (active)
CCOc1ccc(C(=O)CN2CCN(S(=O)(=O)c3ccc(OC)cc3)CC2)cc1,IC50,[9],73.5 µM (active)
N#CC1=C(N)Oc2[nH]nc(-c3ccc(F)cc3)c2C1c1cccc(OC(=O)N2CCOCC2)c1 (stereo unspecified),AC50,[2],6.74 µM (active)
same,EC50,[3],1.29 µM (active)
Clc1ccc(-c2nc3cnccn3c2Nc2ccc3c(c2)OCO3)cc1,CC50,[1],19.9 µM (active)
COc1ccc(CCN(C)C(=O)COC(=O)/C=C/c2ccc(C)o2)cc1OC,CC50,[1],> 40 µM (active)
CCC(=O)NC(=S)Nc1c(C)cc(Br)cc1C,IC50,[4],> 66 µM (inactive)
same,IC50,[5],> 66 µM (inactive)
COc1ccccc1-c1c(C)nn2c(O)c(Cc3ccccc3)c(C)nc12,CC50,[1],> 40 µM (active)
Cc1ccc(-n2nc(C)c3c2OC(N)=C(C#N)C3c2ccoc2)cc1 (stereo unspecified),AC50,[2],5.41 µM (active)
same,EC50,[3],2.56 µM (active)
O=C(NNC(=O)C1CC2CCC1C2)c1sc2ccccc2c1Cl (stereo unspecified),IC50,[9],68.1 µM (active)
CC1(C(=O)O)CC(C)(C(=O)O)CC(C)(C(=O)O)C1 (stereo unspecified),IC50,[9],58.7 µM (active)
O=C(O)c1cc([N+](=O)[O-])c(Nc2cccc3ccccc23)c([N+](=O)[O-])c1,IC50,[10],64.7 µM (active)
c1cncc(CNc2ncnc3sc4c(c23)CCCC4)c1,AC50,[2],> 380 µM (inactive)
same,EC50,[3],> 380 µM (inactive)
COc1ccc(OC)c(C=Cc2ccc([N+](=O)[O-])cc2)c1,IC50,[11],> 49.7 µM (inactive)
same,IC50,[12],8.19 µM (active)
C[C@H]1CN([C@@H](C)CO)C(=O)c2cccc(NC(=O)Nc3cccc4ccccc34)c2O[C@H]1CN(C)Cc1ccc(C(F)(F)F)cc1,AC50,[13],2.85 µM (active)
C[C@H](CO)N1C[C@H](C)[C@@H](CN(C)CC2CC2)Oc2c(NC(=O)CCCCCC(=O)Nc3ccccc3N)cccc2C1=O,AC50,[13],2.88 µM (active)
C[C@@H]1CN([C@H](C)CO)C(=O)c2cccc(NC(=O)CCCCCC(=O)Nc3ccccc3N)c2O[C@@H]1CN(C)S(=O)(=O)c1ccc(F)cc1,AC50,[13],3.66 µM (active)
C[C@H](CO)N1C[C@H](C)[C@H](CN(C)Cc2ccc(Cl)c(Cl)c2)Oc2c(NC(=O)Nc3ccc4c(c3)OCO4)cccc2C1=O,AC50,[13],2.61 µM (active)
C[C@@H]1CCCCO[C@@H](CN(C)CC2CCCCC2)[C@@H](C)CN([C@H](C)CO)C(=O)c2cc(NC(=O)Nc3ccc(C(F)(F)F)cc3)ccc2O1,AC50,[13],1.63 µM (active)
Cc1[nH]n(-c2ccccc2)c(=O)c1Sc1ccc(Cl)cc1,IC50,[9],37.4 µM (active)
same,IC50,[7],> 50 µM (not active)
same,AC50,[2],12.2 µM (active)
same,EC50,[3],4.68 µM (active)
COc1ccc(-n2c(SC)nc(O)c(Cc3ccccc3)c2=O)cc1,IC50,[9],46 µM (active)
same,AC50,[14],7.94 µM (inconclusive)
same,AC50,[15],22.4 µM (inconclusive)
same,AC50,[16],12.6 µM (inconclusive)
